# The source made the active and inactive calls. No cut-off for these calls is given here.
# Experiments:
# [1] = target: T1, von Hippel-Lindau disease tumor suppressor/Histone-lysine N-methyltransferase EHMT2 (Homo sapiens, UniProt Q96KQ7+P40337); test: PROTAC activity at G9a/VHL in human 22Rv1 cells assessed as induction of G9a degradation at 0.3 uM incubated for 24 hrs by Western blot analysis relative to control; assay type: cell-based
# [2] = target: T2, von Hippel-Lindau disease tumor suppressor/Histone-lysine N-methyltransferase EHMT1 (Homo sapiens, UniProt Q9H9B1+P40337); test: PROTAC activity at GLP/VHL in human 22Rv1 cells assessed as induction of GLP degradation at 3 uM incubated for 24 hrs by Western blot analysis relative to control; assay type: cell-based
# T2 sequence (P40337 whole entry partner): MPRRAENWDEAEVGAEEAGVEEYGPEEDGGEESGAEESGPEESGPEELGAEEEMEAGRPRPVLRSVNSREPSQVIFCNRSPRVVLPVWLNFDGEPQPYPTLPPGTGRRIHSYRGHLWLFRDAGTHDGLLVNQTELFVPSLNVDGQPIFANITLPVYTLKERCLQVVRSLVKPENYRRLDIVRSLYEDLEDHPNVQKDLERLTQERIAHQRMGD
# T2 sequence (Q9H9B1 2-1298 limits assumed): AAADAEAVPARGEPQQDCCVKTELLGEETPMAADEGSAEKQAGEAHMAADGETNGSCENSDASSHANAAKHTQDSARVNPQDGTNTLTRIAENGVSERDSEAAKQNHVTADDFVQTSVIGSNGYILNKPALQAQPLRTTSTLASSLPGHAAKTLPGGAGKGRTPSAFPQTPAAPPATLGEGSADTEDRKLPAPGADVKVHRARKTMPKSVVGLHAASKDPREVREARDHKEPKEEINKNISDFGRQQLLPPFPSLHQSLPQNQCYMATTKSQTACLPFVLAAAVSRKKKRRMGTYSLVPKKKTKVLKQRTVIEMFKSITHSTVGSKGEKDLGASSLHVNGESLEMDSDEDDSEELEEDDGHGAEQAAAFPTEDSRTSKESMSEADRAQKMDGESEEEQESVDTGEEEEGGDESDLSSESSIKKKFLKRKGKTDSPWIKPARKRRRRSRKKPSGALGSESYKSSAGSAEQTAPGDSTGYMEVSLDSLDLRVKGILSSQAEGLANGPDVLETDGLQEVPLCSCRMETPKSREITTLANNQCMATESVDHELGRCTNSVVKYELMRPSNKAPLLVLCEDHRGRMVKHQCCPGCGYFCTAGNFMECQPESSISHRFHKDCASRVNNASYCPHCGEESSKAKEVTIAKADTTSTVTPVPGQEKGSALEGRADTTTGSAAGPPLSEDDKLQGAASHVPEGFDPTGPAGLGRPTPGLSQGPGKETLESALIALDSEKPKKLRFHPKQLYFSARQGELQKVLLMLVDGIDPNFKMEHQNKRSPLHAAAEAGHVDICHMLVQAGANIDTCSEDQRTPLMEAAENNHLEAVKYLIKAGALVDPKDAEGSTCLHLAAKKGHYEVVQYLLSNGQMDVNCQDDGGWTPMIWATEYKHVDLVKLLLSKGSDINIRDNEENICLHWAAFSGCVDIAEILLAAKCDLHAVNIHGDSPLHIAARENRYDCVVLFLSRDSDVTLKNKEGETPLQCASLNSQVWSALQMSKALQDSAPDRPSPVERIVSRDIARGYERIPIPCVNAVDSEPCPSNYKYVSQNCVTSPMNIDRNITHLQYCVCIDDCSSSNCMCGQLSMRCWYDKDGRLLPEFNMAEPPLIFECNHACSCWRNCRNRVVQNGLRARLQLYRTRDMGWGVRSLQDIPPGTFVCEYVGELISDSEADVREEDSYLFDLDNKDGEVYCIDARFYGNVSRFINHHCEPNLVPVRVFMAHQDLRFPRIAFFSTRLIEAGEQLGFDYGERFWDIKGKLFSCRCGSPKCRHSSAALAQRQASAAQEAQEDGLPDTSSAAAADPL
# [3] = target: T1, von Hippel-Lindau disease tumor suppressor/Histone-lysine N-methyltransferase EHMT2; test: PROTAC activity at G9a/VHL in human 22Rv1 cells assessed as induction of G9a degradation at 1 uM incubated for 24 hrs by Western blot analysis; assay type: cell-based
# [4] = target: T2, von Hippel-Lindau disease tumor suppressor/Histone-lysine N-methyltransferase EHMT1; test: PROTAC activity at GLP/VHL in human 22Rv1 cells assessed as induction of GLP degradation at 1 uM incubated for 24 hrs by Western blot analysis; assay type: cell-based
# [5] = test system: CWR22R; test: Cytotoxicity against human 22Rv1 cells assessed as growth inhibition measured for 7 days; assay type: functional; conditions: 22Rv1, 168 h, time 7 day
# [6] = test system: PNT2; test: Cytotoxicity against human PNT2 cells assessed as growth inhibition measured for 5 days; assay type: toxicity, cell-based; conditions: pnt2, 120 h, time 5 day
# [7] = target: T1, von Hippel-Lindau disease tumor suppressor/Histone-lysine N-methyltransferase EHMT2; test: PROTAC activity at G9a/VHL in human 22Rv1 cells assessed as induction of G9a degradation at 3 uM by Western blot analysis; assay type: cell-based; conditions: time <= 48.0 hrs, TDE = time-dependent effect
# [8] = target: T2, von Hippel-Lindau disease tumor suppressor/Histone-lysine N-methyltransferase EHMT1; test: PROTAC activity at GLP/VHL in human 22Rv1 cells assessed as induction of GLP degradation at 3 uM by Western blot analysis; assay type: cell-based; conditions: time <= 48.0 hrs, TDE = time-dependent effect
# [9] = target: T1, von Hippel-Lindau disease tumor suppressor/Histone-lysine N-methyltransferase EHMT2; test: PROTAC activity at G9a/VHL in human 22Rv1 cells assessed as induction of G9a degradation at 3 uM measured at 4 hrs by Western blot analysis; assay type: cell-based
# [10] = target: T2, von Hippel-Lindau disease tumor suppressor/Histone-lysine N-methyltransferase EHMT1; test: PROTAC activity at GLP/VHL in human 22Rv1 cells assessed as induction of GLP degradation at 3 uM measured at 4 hrs by Western blot analysis; assay type: cell-based
# [11] = target: T1, von Hippel-Lindau disease tumor suppressor/Histone-lysine N-methyltransferase EHMT2; test: PROTAC activity at G9a/VHL in human 22Rv1 cells assessed as induction of G9a degradation at 3 uM measured at 24 to 48 hrs by Western blot analysis; assay type: cell-based; conditions: time 24-48 hrs
# [12] = target: T1, von Hippel-Lindau disease tumor suppressor/Histone-lysine N-methyltransferase EHMT2; test: PROTAC activity at G9a/VHL in human 22Rv1 cells assessed as effect on G9a level upto 3 uM measured for 24 hrs by Western blot analysis; assay type: cell-based
# [13] = target: T2, von Hippel-Lindau disease tumor suppressor/Histone-lysine N-methyltransferase EHMT1; test: PROTAC activity at GLP/VHL in human 22Rv1 cells assessed as effect on GLP level upto 3 uM measured for 24 hrs by Western blot analysis; assay type: cell-based
# [14] = test system: CWR22R; test: Inhibition of colony formation in human 22Rv1 cells upto 3 uM incubated for 8 days by ethyl violet staining based analysis; assay type: functional, cell-based; conditions: time 8.0 day
# [15] = target: T2, von Hippel-Lindau disease tumor suppressor/Histone-lysine N-methyltransferase EHMT1; test: PROTAC activity at GLP/VHL in human 22Rv1 cells assessed as induction of GLP degradation at 1 uM pretreated with VHL-1 for 2 hrs followed by compound administration and measured after 24 hrs by Western blot analysis; assay type: cell-based
# [16] = target: T1, von Hippel-Lindau disease tumor suppressor/Histone-lysine N-methyltransferase EHMT2; test: PROTAC activity at G9a/VHL in human 22Rv1 cells assessed as effect on G9a level at 3 uM incubated for 24 hrs by RT-qPCR analysis; assay type: cell-based
# [17] = target: T2, von Hippel-Lindau disease tumor suppressor/Histone-lysine N-methyltransferase EHMT1; test: PROTAC activity at GLP/VHL in human 22Rv1 cells assessed as effect on VHL level at 3 uM incubated for 24 hrs by RT-qPCR analysis; assay type: cell-based
# [18] = target: Histone-lysine N-methyltransferase, H3 lysine-79 specific (Homo sapiens) (UniProt Q8TEK3); test: Inhibition of DOT1L (unknown origin) at 10 uM relative to control
# [19] = target: Histone-lysine N-methyltransferase EZH2 (Homo sapiens) (UniProt Q15910); test: Inhibition of EZH2 (unknown origin) at 10 uM relative to control
# [20] = target: Histone-lysine N-methyltransferase 2A (Homo sapiens) (UniProt Q03164); test: Inhibition of MLL1 (unknown origin) at 10 uM relative to control
# [21] = target: Histone-lysine N-methyltransferase, H3 lysine-36 specific (Homo sapiens) (UniProt Q96L73); test: Inhibition of NSD1 (unknown origin) at 10 uM relative to control
# [22] = target: Histone-lysine N-methyltransferase NSD2 (Homo sapiens) (UniProt O96028); test: Inhibition of NSD2 (unknown origin) at 10 uM relative to control
# [23] = target: Histone-lysine N-methyltransferase NSD3 (Homo sapiens) (UniProt Q9BZ95); test: Inhibition of NSD3 (unknown origin) at 10 uM relative to control
# Histone-lysine N-methyltransferase NSD3 (Homo sapiens), sequence (Q9BZ95 whole entry): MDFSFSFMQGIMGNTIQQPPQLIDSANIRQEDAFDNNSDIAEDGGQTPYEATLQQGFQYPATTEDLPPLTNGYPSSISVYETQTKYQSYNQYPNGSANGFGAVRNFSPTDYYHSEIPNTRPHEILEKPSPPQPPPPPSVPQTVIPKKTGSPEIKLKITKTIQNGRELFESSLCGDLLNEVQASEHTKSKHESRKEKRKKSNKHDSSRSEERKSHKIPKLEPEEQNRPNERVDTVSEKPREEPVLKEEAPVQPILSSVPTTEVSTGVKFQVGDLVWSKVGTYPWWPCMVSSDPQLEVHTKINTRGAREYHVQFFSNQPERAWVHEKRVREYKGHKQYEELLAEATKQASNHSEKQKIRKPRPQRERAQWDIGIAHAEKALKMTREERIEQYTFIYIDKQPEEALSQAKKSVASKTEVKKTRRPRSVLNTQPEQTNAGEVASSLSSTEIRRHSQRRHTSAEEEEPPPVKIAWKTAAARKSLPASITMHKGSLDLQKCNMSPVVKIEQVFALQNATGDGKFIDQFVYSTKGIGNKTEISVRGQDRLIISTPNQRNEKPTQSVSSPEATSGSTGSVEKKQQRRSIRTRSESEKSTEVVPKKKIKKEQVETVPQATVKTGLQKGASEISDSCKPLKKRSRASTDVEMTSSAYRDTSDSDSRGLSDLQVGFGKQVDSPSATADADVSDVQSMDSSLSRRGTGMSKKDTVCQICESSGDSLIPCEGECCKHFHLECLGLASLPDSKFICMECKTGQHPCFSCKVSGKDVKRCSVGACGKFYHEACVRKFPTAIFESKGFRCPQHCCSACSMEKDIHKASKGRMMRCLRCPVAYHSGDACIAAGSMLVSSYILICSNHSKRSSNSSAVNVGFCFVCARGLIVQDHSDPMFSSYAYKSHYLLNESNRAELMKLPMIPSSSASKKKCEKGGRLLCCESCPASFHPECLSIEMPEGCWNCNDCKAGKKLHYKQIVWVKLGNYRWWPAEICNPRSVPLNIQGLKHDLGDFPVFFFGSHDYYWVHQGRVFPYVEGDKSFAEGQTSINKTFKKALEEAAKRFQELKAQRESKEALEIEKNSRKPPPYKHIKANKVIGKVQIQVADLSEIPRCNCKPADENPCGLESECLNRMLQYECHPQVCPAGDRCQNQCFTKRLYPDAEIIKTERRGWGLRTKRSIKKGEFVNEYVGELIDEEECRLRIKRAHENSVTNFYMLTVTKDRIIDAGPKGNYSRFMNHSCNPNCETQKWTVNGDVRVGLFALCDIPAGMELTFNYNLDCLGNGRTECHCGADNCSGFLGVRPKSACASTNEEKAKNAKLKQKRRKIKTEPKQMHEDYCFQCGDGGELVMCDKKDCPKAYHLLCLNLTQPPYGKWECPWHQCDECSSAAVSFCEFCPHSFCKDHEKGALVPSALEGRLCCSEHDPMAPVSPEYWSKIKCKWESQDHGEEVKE
# [24] = target: Histone-arginine methyltransferase CARM1 (Homo sapiens) (UniProt Q86X55); test: Inhibition of PRMT4 (unknown origin) at 10 uM relative to control
# [25] = target: Protein arginine N-methyltransferase 6 (Homo sapiens) (UniProt Q96LA8); test: Inhibition of PRMT6 (unknown origin) at 10 uM relative to control
# [26] = target: Protein arginine N-methyltransferase 8 (Homo sapiens) (UniProt Q9NR22); test: Inhibition of PRMT8 (unknown origin) at 10 uM relative to control
# Protein arginine N-methyltransferase 8 (Homo sapiens), sequence (Q9NR22 2-394 limits assumed): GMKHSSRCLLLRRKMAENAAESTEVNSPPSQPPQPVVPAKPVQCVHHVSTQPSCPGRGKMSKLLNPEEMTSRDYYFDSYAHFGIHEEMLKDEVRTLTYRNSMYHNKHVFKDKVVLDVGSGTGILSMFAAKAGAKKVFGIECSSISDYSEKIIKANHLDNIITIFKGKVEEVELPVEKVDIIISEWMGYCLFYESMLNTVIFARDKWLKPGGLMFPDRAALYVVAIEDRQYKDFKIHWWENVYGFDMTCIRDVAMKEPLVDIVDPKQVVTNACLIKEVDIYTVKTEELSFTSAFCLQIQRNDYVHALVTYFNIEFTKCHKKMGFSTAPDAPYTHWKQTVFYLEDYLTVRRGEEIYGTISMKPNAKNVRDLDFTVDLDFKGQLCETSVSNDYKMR
# [27] = target: Histone-lysine N-methyltransferase SETD1B (Homo sapiens) (UniProt Q9UPS6); test: Inhibition of SET1b (unknown origin) at 10 uM relative to control
# [28] = target: Histone-lysine N-methyltransferase SETD7 (Homo sapiens) (UniProt Q8WTS6); test: Inhibition of SET7/9 (unknown origin) at 10 uM relative to control
# Histone-lysine N-methyltransferase SETD7 (Homo sapiens), sequence (Q8WTS6 whole entry): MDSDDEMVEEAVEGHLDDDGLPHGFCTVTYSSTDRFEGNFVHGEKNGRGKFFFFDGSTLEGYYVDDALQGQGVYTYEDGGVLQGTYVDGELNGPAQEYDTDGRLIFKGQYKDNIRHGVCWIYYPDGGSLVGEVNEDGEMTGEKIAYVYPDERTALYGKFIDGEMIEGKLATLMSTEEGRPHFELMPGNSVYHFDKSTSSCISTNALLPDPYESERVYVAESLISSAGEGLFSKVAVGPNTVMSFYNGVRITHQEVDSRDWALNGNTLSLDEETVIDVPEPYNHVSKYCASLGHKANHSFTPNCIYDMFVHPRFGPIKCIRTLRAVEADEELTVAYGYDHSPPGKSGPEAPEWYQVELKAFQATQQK
# [29] = target: Histone-lysine N-methyltransferase SETD2 (Homo sapiens) (UniProt Q9BYW2); test: Inhibition of SETD2 (unknown origin) at 10 uM relative to control
# [30] = target: Histone-lysine N-methyltransferase SUV39H1 (Homo sapiens) (UniProt O43463); test: Inhibition of SUV39H1 (unknown origin) at 10 uM relative to control
# [31] = test system: CWR22R; test: Effect on EZH2 level in human 22Rv1 cells at 3 uM incubated for 24 hrs by Western blot analysis; assay type: functional, cell-based
# [32] = test system: CWR22R; test: Effect on PRMT7 level in human 22Rv1 cells at 3 uM incubated for 24 hrs by Western blot analysis; assay type: functional, cell-based
# [33] = test system: CWR22R; test: Effect on SET7/9 level in human 22Rv1 cells at 3 uM incubated for 24 hrs by Western blot analysis; assay type: functional, cell-based
# [34] = test system: K562; test: Cytotoxicity against human K562 cells assessed as growth inhibition incubated for 7 days; assay type: functional; conditions: K562, 168 h, time 7 day
# [35] = target: T1, von Hippel-Lindau disease tumor suppressor/Histone-lysine N-methyltransferase EHMT2; test: PROTAC activity at G9a/VHL in human NCI-H1299 cells assessed as induction of G9a degradation at 3 uM incubated for 24 hrs by Western blot analysis; assay type: cell-based
# [36] = Cmax in C57BL6 mouse plasma at 50 mg/kg, ip measured at 0.5 hrs by LC-MS/MS analysis; assay type: ADME, organism-based
# [37] = Cmax in C57BL6 mouse plasma at 50 mg/kg, ip measured at 8 hrs by LC-MS/MS analysis; assay type: ADME, organism-based
# T1 sequence (P40337 whole entry partner): as the sequence (P40337 whole entry partner) above
# T1 sequence (Q96KQ7 2-1210 limits assumed): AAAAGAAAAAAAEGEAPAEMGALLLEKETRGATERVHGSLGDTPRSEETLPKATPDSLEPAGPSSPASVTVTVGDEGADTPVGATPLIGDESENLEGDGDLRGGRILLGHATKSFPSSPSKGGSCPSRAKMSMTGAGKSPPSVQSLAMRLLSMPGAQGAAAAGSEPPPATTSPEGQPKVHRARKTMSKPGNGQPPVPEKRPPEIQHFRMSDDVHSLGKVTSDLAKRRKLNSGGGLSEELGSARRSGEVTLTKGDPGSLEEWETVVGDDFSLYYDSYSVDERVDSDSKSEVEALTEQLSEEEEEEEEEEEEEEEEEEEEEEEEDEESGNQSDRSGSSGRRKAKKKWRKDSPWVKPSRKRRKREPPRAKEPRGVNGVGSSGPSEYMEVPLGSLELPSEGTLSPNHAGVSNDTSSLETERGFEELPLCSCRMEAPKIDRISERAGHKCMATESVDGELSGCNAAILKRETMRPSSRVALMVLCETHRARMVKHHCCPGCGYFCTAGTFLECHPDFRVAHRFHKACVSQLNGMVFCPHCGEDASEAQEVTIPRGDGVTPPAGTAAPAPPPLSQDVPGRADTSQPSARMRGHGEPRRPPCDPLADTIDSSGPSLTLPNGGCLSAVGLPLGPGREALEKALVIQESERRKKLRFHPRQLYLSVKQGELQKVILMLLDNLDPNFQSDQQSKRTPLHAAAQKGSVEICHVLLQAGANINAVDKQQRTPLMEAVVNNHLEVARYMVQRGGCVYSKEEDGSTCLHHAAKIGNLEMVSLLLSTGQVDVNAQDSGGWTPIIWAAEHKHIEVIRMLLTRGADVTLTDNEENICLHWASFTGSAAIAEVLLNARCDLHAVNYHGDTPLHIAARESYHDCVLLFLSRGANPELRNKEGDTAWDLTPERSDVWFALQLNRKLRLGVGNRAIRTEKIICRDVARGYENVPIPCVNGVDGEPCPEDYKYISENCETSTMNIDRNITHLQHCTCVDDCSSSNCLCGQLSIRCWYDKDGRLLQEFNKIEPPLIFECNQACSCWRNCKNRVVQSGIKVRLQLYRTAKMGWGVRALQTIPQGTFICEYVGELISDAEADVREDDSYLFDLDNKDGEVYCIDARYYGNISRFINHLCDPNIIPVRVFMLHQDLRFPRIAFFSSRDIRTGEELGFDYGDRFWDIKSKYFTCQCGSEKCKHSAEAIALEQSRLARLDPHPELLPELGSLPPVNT
structure (smiles),measurement,setting,value
COc1cc2c(NC3CCN(CCCC(=O)NCCCCCCCCCCCC(=O)N[C@H](C(=O)N4C[C@H](O)C[C@H]4C(=O)NCc4ccc(-c5scnc5C)cc4)C(C)(C)C)CC3)nc(N3CCC(F)(F)CC3)nc2cc1OCCCN1CCCC1,Emax,[1],73%
same,Emax,[2],> 99%
same,Activity,[3],Active
same,Activity,[4],Active
same,GI50,[5],4.1 µM
same,Activity,[6],Non-Toxic
same,Activity,[7],Tde
same,Activity,[8],Tde
same,Activity,[9],Active
same,Activity,[10],Active
same,Activity,[11],100%
same,Activity,[12],Active
same,Activity,[13],Active
same,inhibition,[14],Active
same,Activity,[15],Active
same,Activity,[16],Active
same,Activity,[17],Active
same,inhibition,[18],> 50%
same,inhibition,[19],> 50%
same,inhibition,[20],> 50%
same,inhibition,[21],> 50%
same,inhibition,[22],> 50%
same,inhibition,[23],> 50%
same,inhibition,[24],> 50%
same,inhibition,[25],> 50%
same,inhibition,[26],> 50%
same,inhibition,[27],> 50%
same,inhibition,[28],> 50%
same,inhibition,[29],> 50%
same,inhibition,[30],> 50%
same,Activity,[31],Active
same,Activity,[32],Active
same,Activity,[33],Active
same,GI50,[34],2 µM
same,Activity,[35],Active
same,Cmax,[36],27 µM
same,Cmax,[37],> 5 µM

# From ChEMBL document CHEMBL5543145, “Discovery of the First-in-Class G9a/GLP PROTAC Degrader” (J Med Chem, 2024)
